# From patent publication US12692302B2, “Uses of IL-13 antagonists for treating atopic dermatitis” (Genentech, Inc., priority 2016, dated 2026)
# System: adult patients with persistent moderate to severe AD inadequately controlled by TCS
# Assay: Clinical Study II (phase II, open label, lebrikizumab monotherapy vs TCS alone): efficacy
# Assay type: in vivo, human
# Conditions: for % change in BSA / % change in EASI / % change in SCORAD / EASI-75 (percent of patients) / EASI-90 (percent of patients) / IGA 0/1 (percent of patients): lebrikizumab 125 mg SC Q4W monotherapy (n = 28) or TCS cream alone BID (n = 27); for % change in pruritus VAS: patients with baseline pruritus VAS ≥3, lebrikizumab 125 mg SC Q4W monotherapy or TCS cream alone BID
# Excerpt: Clinical Study II was a Phase II, randomized, open label study to evaluate the safety and efficacy of lebrikizumab monotherapy in adult patients (18-75 years of age) with persistent moderate to severe AD, who were inadequately controlled by TCS.
# The inclusion criteria included the following: age 18 to 75 years; AD diagnosed by the Hanifin/Rajka criteria and that had been present for at least 1 year at screening; moderate to severe AD as graded by the Rajka/Langeland criteria at screening; history of inadequate response to a 1 month (within the 3 months prior to the screening visit) treatment regimen of at least daily TCS and regular emollient for treatment of AD; EASI score 14 at screening and end of the run-in period (Visit 3), IGA score 3 (5-point scale) at screening and end of the run-in period (Visit 3); AD involvement of 10% body surface area (BSA) at screening; and Pruritus VAS score (measured as part of the SCORAD) of 3 at screening; adherence to the protocol-specified 2-week run-in period TCS regimen (at least 10 out of 14 days) at the time of entry into the treatment period (Day 1).
# Run-in Period. Following screening, eligible patients entered a 2-week run-in period (Days −14 to −1). After the run-in period, patients stopped use of their pre-study TCS (and other AD medications) and began a protocol-specified topical therapy regimen as outlined below. On the first day of the run-in period (Day −14) patients received TCS for use throughout the run-in period. Specifically, patients received triamcinolone acetonide 0.1% cream for use on the body and hydrocortisone 2.5% cream for use on the face and intertriginous areas. Patients were instructed to apply emollient to all xerotic skin surfaces at least once daily and to apply cream to active skin lesions twice per day and not to apply cream to unaffected areas.
# Treatment Period (Weeks 1-12). […] A total of approximately 50 patients were randomized (1:1) to one of the following two treatment groups (see FIG. 10): Group 1: 125 mg of lebrikizumab administered by subcutaneous (SC) injection every 4 weeks (Q4W) for a total of 3 doses; and Group 2: TCS cream alone.
# Efficacy Outcome Measures. The exploratory efficacy outcome measures of lebrikizumab monotherapy compared to TCS alone for this study were as follows, in order: (i) percent of patients with a 50% or 75% (EAST 50/75) reduction from baseline EASI at Week 12 (EASI-50 and EASI-75 were defined as a 50% and 75% reduction, respectively, in EASI score at Week 12 compared to baseline); (ii) percent and absolute change from baseline in EASI score at Week 12; (iii) percent of patients achieving an IGA score of 0 or 1 at Week 12; (iv) percent of patients with a ≥2 point reduction from baseline in IGA at Week 12; (v) absolute change from baseline in IGA at Week 12; (vi) percent of patients achieving an IGSA score of 0 or 1 at Week 12; (vii) percent of patients with a ≥2 point reduction from baseline in IGSA at Week 12; (viii) absolute change from baseline in IGSA at Week 12; (ix) percent and absolute change from baseline in SCORAD at Week 12; (x) percent of patients with a 50% or 75% reduction (SCORAD 50/75) from baseline in SCORAD score at Week 12; (xi) percent change from baseline in total percent body surface area (BSA) affected at Week 12; (xii) absolute- and percent-change from baseline in pruritus as measured by the Pruritus VAS (assessed as part of the SCORAD) at Week 12; (xiii) number of disease flares from baseline to Week 12; and (xiv) percent of patients who receive non-protocol specified TCS before Week 12.
substance,measurement,setting,value
"lebrikizumab: monoclonal humanized anti-IL-13 IgG4 antibody; heavy chain SEQ ID NO: 11, light chain SEQ ID NO: 12; formulated at 125 mg/mL in prefilled syringe",% change in BSA,Baseline to Week 12,−43.2%
same,% change in EASI,Baseline to Week 12,−44.0%
same,% change in SCORAD,Baseline to Week 12,−26.6%
same,EASI-75 (percent of patients),Baseline to Week 12,39.3%
same,EASI-90 (percent of patients),Baseline to Week 12,14.3%
same,IGA 0/1 (percent of patients),Baseline to Week 12,7.1%
same,% change in pruritus VAS,Baseline to Week 12,−14.5%
same,% change in BSA,Day −14 to Week 12,−52.2%
same,% change in EASI,Day −14 to Week 12,−53.8%
same,% change in SCORAD,Day −14 to Week 12,−40.5%
same,EASI-75 (percent of patients),Day −14 to Week 12,42.9%
same,EASI-90 (percent of patients),Day −14 to Week 12,14.3%
same,IGA 0/1 (percent of patients),Day −14 to Week 12,7.1%
same,% change in pruritus VAS,Day −14 to Week 12,−39.6%
